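GI50 = concentration required for 50% inhibition of growth. Definition used: TGI = concentration required for complete inhibition of growth.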
How the values were obtained:
Assay in all cases: DTP human tumour cell line panel, 384-well format
SK-OV-3 ovarian = system: SK-OV-3 ovarian
COLO 205 colon = system: COLO 205 colon
SK-MEL-28 melanoma = system: SK-MEL-28 melanoma
M14 melanoma = system: M14 melanoma
MOLT-4 leukemia = system: MOLT-4 leukemia
RXF 393 renal = system: RXF 393 renal
ACHN renal = system: ACHN renal
UACC-257 melanoma = system: UACC-257 melanoma
SK-MEL-5 melanoma = system: SK-MEL-5 melanoma
CCRF-CEM leukemia = system: CCRF-CEM leukemia
PC-3 prostate = system: PC-3 prostate
NCI-H23 lung = system: NCI-H23 lung
SW-620 colon = system: SW-620 colon
SK-MEL-2 melanoma = system: SK-MEL-2 melanoma
SR leukemia = system: SR leukemia
MDA-MB-231 breast = system: MDA-MB-231 breast
UACC-62 melanoma = system: UACC-62 melanoma
786-0 renal = system: 786-0 renal
HT29 colon = system: HT29 colon
SNB-19 CNS = system: SNB-19 CNS
MCF7 breast = system: MCF7 breast
MDA-MB-468 breast = system: MDA-MB-468 breast
CAKI-1 renal = system: CAKI-1 renal
OVCAR-8 ovarian = system: OVCAR-8 ovarian
DU-145 prostate = system: DU-145 prostate
TK-10 renal = system: TK-10 renal
SN12C renal = system: SN12C renal
HOP-92 NSCLC = system: HOP-92 NSCLC
OVCAR-4 ovarian = system: OVCAR-4 ovarian
EKVX NSCLC = system: EKVX NSCLC
MALME-3M melanoma = system: MALME-3M melanoma
HOP-62 NSCLC = system: HOP-62 NSCLC
BT-549 breast = system: BT-549 breast
T-47D breast = system: T-47D breast
SF-295 CNS = system: SF-295 CNS
OVCAR-3 ovarian = system: OVCAR-3 ovarian
RPMI-8226 leukemia = system: RPMI-8226 leukemia
IGROV1 ovarian = system: IGROV1 ovarian
HL-60(TB) leukemia = system: HL-60(TB) leukemia
NCI-H226 lung = system: NCI-H226 lung
KM12 colon = system: KM12 colon
HCC-2998 colon = system: HCC-2998 colon
NCI-H460 NSCLC = system: NCI-H460 NSCLC
U251 glioblastoma = system: U251 glioblastoma
NCI-H322M lung = system: NCI-H322M lung
OVCAR-5 ovarian = system: OVCAR-5 ovarian
SNB-75 CNS = system: SNB-75 CNS
SF-268 CNS = system: SF-268 CNS
SF-539 CNS = system: SF-539 CNS
NCI-H522 lung = system: NCI-H522 lung
A498 renal = system: A498 renal
HS 578T breast = system: HS 578T breast
A549 NSCLC = system: A549 NSCLC
HCT-15 colon = system: HCT-15 colon
NCI/ADR-RES ovarian = system: NCI/ADR-RES ovarian
MDA-MB-435 melanoma = system: MDA-MB-435 melanoma

Nc1n[n+](=O)c2ccccc2n1O
GI50 (SK-OV-3 ovarian): 17.7 µM | TGI (SK-OV-3 ovarian): 70.5 µM | GI50 (COLO 205 colon): 35.8 µM | TGI (COLO 205 colon): > 100 µM | GI50 (SK-MEL-28 melanoma): > 100 µM | TGI (SK-MEL-28 melanoma): > 100 µM | GI50 (M14 melanoma): 24.5 µM | TGI (M14 melanoma): 65.6 µM | GI50 (MOLT-4 leukemia): 12.3 µM | TGI (MOLT-4 leukemia): 24.8 µM | GI50 (RXF 393 renal): 36.8 µM | TGI (RXF 393 renal): > 100 µM | GI50 (ACHN renal): 27.2 µM | TGI (ACHN renal): 69.8 µM | GI50 (UACC-257 melanoma): 68.2 µM | TGI (UACC-257 melanoma): > 100 µM | GI50 (SK-MEL-5 melanoma): 14.7 µM | TGI (SK-MEL-5 melanoma): 34.3 µM | GI50 (CCRF-CEM leukemia): 20.5 µM | TGI (CCRF-CEM leukemia): 47.5 µM | GI50 (PC-3 prostate): 46.4 µM | TGI (PC-3 prostate): > 100 µM | GI50 (NCI-H23 lung): 18 µM | TGI (NCI-H23 lung): 46.5 µM | GI50 (SW-620 colon): 72.5 µM | TGI (SW-620 colon): > 100 µM | GI50 (SK-MEL-2 melanoma): 42.2 µM | TGI (SK-MEL-2 melanoma): 90.5 µM | GI50 (SR leukemia): 4.04 µM | TGI (SR leukemia): 13.5 µM | GI50 (MDA-MB-231 breast): 70 µM | TGI (MDA-MB-231 breast): > 100 µM | GI50 (UACC-62 melanoma): 20.6 µM | TGI (UACC-62 melanoma): 59.9 µM | GI50 (786-0 renal): 59.8 µM | TGI (786-0 renal): > 100 µM | GI50 (HT29 colon): 69.7 µM | TGI (HT29 colon): > 100 µM | GI50 (SNB-19 CNS): 48.2 µM | TGI (SNB-19 CNS): > 100 µM | GI50 (MCF7 breast): 57.6 µM | TGI (MCF7 breast): > 100 µM | GI50 (MDA-MB-468 breast): 6.96 µM | TGI (MDA-MB-468 breast): 23.1 µM | GI50 (CAKI-1 renal): 36.2 µM | TGI (CAKI-1 renal): > 100 µM | GI50 (OVCAR-8 ovarian): 37.7 µM | TGI (OVCAR-8 ovarian): > 100 µM | GI50 (DU-145 prostate): 43.5 µM | TGI (DU-145 prostate): > 100 µM | GI50 (TK-10 renal): 69.8 µM | TGI (TK-10 renal): > 100 µM | GI50 (SN12C renal): 22.3 µM | TGI (SN12C renal): > 100 µM | GI50 (HOP-92 NSCLC): 20.3 µM | TGI (HOP-92 NSCLC): 65.5 µM | GI50 (OVCAR-4 ovarian): 24.5 µM | TGI (OVCAR-4 ovarian): 73 µM | GI50 (EKVX NSCLC): 33.1 µM | TGI (EKVX NSCLC): > 100 µM | GI50 (MALME-3M melanoma): 27.8 µM | TGI (MALME-3M melanoma): 81.4 µM | GI50 (HOP-62 NSCLC): 22.5 µM | TGI (HOP-62 NSCLC): 66.6 µM | GI50 (BT-549 breast): 24.1 µM | TGI (BT-549 breast): 65.1 µM | GI50 (T-47D breast): 24.1 µM | TGI (T-47D breast): > 100 µM | GI50 (SF-295 CNS): 26.1 µM | TGI (SF-295 CNS): > 100 µM | GI50 (OVCAR-3 ovarian): 35.1 µM | TGI (OVCAR-3 ovarian): > 100 µM | GI50 (RPMI-8226 leukemia): 13.3 µM | TGI (RPMI-8226 leukemia): 31.4 µM | GI50 (IGROV1 ovarian): 36.7 µM | TGI (IGROV1 ovarian): > 100 µM | GI50 (HL-60(TB) leukemia): 20.2 µM | TGI (HL-60(TB) leukemia): 40.5 µM | GI50 (NCI-H226 lung): 39.4 µM | TGI (NCI-H226 lung): > 100 µM | GI50 (KM12 colon): 41.7 µM | TGI (KM12 colon): > 100 µM | GI50 (HCC-2998 colon): 35.8 µM | TGI (HCC-2998 colon): > 100 µM | GI50 (NCI-H460 NSCLC): 18.8 µM | TGI (NCI-H460 NSCLC): 61.6 µM | GI50 (U251 glioblastoma): 46.7 µM | TGI (U251 glioblastoma): > 100 µM | GI50 (NCI-H322M lung): > 100 µM | TGI (NCI-H322M lung): > 100 µM | GI50 (OVCAR-5 ovarian): > 100 µM | TGI (OVCAR-5 ovarian): > 100 µM | GI50 (SNB-75 CNS): 20 µM | TGI (SNB-75 CNS): 60.3 µM | GI50 (SF-268 CNS): 24.3 µM | TGI (SF-268 CNS): 73.5 µM | GI50 (SF-539 CNS): 58.3 µM | TGI (SF-539 CNS): > 100 µM | GI50 (NCI-H522 lung): 11.9 µM | TGI (NCI-H522 lung): 44.1 µM | GI50 (A498 renal): 38.7 µM | TGI (A498 renal): > 100 µM | GI50 (HS 578T breast): 20 µM | TGI (HS 578T breast): > 100 µM | GI50 (A549 NSCLC): 47 µM | TGI (A549 NSCLC): > 100 µM | GI50 (HCT-15 colon): 32 µM | TGI (HCT-15 colon): > 100 µM | GI50 (NCI/ADR-RES ovarian): 51.4 µM | TGI (NCI/ADR-RES ovarian): > 100 µM | GI50 (MDA-MB-435 melanoma): > 100 µM | TGI (MDA-MB-435 melanoma): > 100 µM
